# Key:
# [1] = plasma protein binding, rat; type: in vitro ADME; settings: relative to VX-765 (1) and NCGC00185682 (3)
# Method: (§1) Given the aqueous stability of these new agents, selected ADME properties for chosen compounds were also examined. VX-765 (1), VRT-043198 (2b), NCGC00185682 (3), NCGC00183434 (4) and NCGC00183681 (16) were evaluated for a profile of bi-directional Caco-2 permeability, plasma protein binding (both human and rat) and microsomal stability (both human and rat) studies (FIG. 9, Table 2). […] The clearance rates (Clint) and t ½ for VRT-043198 (2b), NCGC00185682 (3), NCGC00183434 (4) and NCGC00183681 (16) were all moderate.
# [2] = microsomal stability (both human and rat); type: in vitro ADME; settings: for clearance rates (Clint) / t ½: species not given
# Method: as §1
# [3] = plasma protein binding, human; type: in vitro ADME; settings: relative to VX-765 (1) and NCGC00185682 (3)
# Method: as §1
# [4] = aqueous degradation study by LCMS over 96 hours; type: physicochemical; settings: for aqueous stability in acidic conditions (pH 2): pH 2, LCMS; for aqueous stability in acidic conditions (pH 2) / aqueous stability in neutral conditions (water, pH 7) / aqueous stability in basic conditions (pH 8): over 96 hours; for aqueous stability in neutral conditions (water, pH 7): pH 7, LCMS; for aqueous stability in basic conditions (pH 8): pH 8, LCMS
# Method: In order to evaluate the agent's stability profile, VX-765 (1), VRT-043198 (2b), NCGC00185682 (3), NCGC00183434 (4) and NCGC00183681 (16) were examined within an aqueous degradation study at neutral (pH 7) acidic (pH 2) and basic (pH 8) conditions. The study was conducted by monitoring the degradation of each agent by LCMS analysis at various time points over 96 hours (FIG. 8). […] This degradation was amplified in both basic and acidic conditions. Conversely, the active agent VRT-043198 (2b) was very stable in both water and acidic conditions and its degradation at pH 8 was moderate.
# [5] = biological target: T1, caspase 14 (Homo sapiens, UniProt P31944); assay: commercial panel of caspases (Reaction Biology Corporation), caspase 14; type: biochemical; settings: read-out: IC50 versus caspase 14
# T1 construct: purchased Reaction Biology Corporation
# T1 sequence (P31944 6-146 limits assumed): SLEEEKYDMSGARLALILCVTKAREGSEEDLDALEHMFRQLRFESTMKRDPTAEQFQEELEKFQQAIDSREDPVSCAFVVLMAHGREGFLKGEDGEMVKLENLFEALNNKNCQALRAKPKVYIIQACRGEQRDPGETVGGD
# T1 sequence (P31944 153-242 limits assumed): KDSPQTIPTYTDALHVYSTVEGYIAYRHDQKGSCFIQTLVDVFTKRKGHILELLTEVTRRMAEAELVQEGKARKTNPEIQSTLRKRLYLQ
# Text: (§2) Having established that the compounds (3), (4) and (16) are potent inhibitors of caspase 1, the selectivity of these agents was examined. […] Wannamaker, W.; Davies, R.; Namchuk, M.; Pollard, J.; Ford, P.; Ku, G.; Decker, C.; Charifson, P.; Weber, P.; Germann, U. A.; Kuida, K.; Randle, J. C. R. J. Pharmacol. Exp. Ther. 2007, 321, 509-516. […] VRT-043198 (2b), NCGC00185682 (3), NCGC00183434 (4) and NCGC00183681 (16) were entered within a commercial panel of caspases offered by Reaction Biology Corporation. […] A particularly interesting aspect of these molecules was the high selectivity for caspase 1. […] All other activities were about the 1 μM threshold.
# [6] = biological target: T2, caspase 1 (Homo sapiens, UniProt P29466); assay: commercial panel of caspases (Reaction Biology Corporation), caspase 1; type: biochemical; settings: read-out: IC50 versus caspase 1
# T2 sequence (P29466 120-297 limits assumed): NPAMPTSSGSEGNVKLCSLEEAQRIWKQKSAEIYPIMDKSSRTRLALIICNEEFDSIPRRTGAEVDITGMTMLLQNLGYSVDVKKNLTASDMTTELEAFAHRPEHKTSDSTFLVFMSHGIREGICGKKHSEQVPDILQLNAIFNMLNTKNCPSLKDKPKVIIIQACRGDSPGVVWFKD
# T2 sequence (P29466 317-404 limits assumed): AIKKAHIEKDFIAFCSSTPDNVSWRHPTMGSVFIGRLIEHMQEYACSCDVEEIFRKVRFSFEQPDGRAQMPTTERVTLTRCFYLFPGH
# Text: as §2
# [7] = biological target: T2, caspase 1; assay: caspase 1 inhibition assay with caged fluorescent peptide substrate (Ac-LEHD-AMC); type: biochemical; settings: 2 nM enzyme, 20 minutes at room temperature, fluorescence detection, read-out: IC50 versus caspase 1
# Method: Each agent's inhibitory capacity versus caspase 1 was evaluated. A well established protocol was utilized whereby caspase 1 activity is measured utilizing 2 nM enzyme in the presence and absence of compound and a caged fluorescent peptide substrate (Ac-LEHD-AMC). Wannamaker et al, Journal of Pharmacology and Experimental Therapeutics, 2007, 321, 509-516. The compounds were examined across a titration series (0.325 nM→57.5 μM) and data was recorded via fluorescence detection following an incubation period of 20 minutes at room temperature.
# [8] = biological target: T3, caspase 9 (Homo sapiens, UniProt P55211); assay: commercial panel of caspases (Reaction Biology Corporation), caspase 9; type: biochemical; settings: read-out: IC50 versus caspase 9
# T3 construct: purchased Reaction Biology Corporation
# T3 sequence (P55211 1-315 limits assumed): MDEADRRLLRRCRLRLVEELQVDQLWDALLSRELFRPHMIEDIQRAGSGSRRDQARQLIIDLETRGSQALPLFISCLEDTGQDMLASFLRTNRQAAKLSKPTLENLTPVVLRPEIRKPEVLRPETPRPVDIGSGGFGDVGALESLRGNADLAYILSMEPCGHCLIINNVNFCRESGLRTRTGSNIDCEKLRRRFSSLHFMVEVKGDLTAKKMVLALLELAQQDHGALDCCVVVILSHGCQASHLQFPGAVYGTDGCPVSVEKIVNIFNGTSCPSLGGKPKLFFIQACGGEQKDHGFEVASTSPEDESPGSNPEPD
# T3 sequence (P55211 331-416 limits assumed): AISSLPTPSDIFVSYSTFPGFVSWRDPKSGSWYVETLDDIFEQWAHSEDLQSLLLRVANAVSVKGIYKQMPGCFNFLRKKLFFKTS
# Text: as §2
# [9] = system: Caco-2; assay: bi-directional Caco-2 permeability; type: in vitro ADME
# Method: as §1
# [10] = biological target: T4, Pgp (Homo sapiens, UniProt P08183); assay: Caco-2 control experiment with verapamil (Pgp efflux); type: in vitro ADME
# T4 construct: endogenous in cells; host or cells: Caco-2
# T4 sequence (P08183 whole entry): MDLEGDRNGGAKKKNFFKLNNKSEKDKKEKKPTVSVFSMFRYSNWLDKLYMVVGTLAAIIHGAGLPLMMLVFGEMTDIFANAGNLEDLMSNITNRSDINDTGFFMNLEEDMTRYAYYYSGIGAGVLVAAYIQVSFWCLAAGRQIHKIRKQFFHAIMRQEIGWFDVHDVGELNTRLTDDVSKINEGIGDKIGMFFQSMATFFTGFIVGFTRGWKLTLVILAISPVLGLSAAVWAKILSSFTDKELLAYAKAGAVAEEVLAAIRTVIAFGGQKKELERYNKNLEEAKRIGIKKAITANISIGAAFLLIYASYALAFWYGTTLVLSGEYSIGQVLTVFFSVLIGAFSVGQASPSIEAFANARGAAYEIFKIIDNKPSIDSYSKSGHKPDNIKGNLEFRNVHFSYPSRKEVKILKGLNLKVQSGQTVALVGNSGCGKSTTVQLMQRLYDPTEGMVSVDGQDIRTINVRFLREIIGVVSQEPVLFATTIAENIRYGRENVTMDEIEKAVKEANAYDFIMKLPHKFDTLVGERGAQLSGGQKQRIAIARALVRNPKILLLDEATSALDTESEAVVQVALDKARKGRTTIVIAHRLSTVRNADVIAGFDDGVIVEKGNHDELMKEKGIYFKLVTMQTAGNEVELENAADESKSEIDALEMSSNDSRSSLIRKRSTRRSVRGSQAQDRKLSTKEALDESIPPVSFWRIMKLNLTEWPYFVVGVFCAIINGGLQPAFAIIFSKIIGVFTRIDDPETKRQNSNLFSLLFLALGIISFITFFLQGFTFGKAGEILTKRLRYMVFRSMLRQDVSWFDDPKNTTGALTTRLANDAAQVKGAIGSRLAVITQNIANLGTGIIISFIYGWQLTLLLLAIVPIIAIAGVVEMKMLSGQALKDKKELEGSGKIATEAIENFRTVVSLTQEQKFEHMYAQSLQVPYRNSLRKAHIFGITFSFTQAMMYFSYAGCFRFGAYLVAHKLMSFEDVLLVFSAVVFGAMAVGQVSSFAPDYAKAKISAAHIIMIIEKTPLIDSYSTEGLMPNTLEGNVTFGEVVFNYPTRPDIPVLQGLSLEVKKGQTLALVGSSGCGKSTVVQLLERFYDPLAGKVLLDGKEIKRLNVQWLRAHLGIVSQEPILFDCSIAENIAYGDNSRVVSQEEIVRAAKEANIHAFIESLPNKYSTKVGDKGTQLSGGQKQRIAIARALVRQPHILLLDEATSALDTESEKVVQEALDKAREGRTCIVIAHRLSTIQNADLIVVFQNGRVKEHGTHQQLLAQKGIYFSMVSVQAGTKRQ
# Method: as §1
# [11] = system: caspases 3, 7, granzyme B, cathepsin B and tyrpsin; settings: reported by Randle and coworkers; cited from earlier work
# [12] = biological target: T5, caspase 8 (Homo sapiens, UniProt Q14790); assay: commercial panel of caspases (Reaction Biology Corporation), caspase 8; type: biochemical; settings: read-out: IC50 versus caspase 8
# T5 sequence (Q14790 217-374 limits assumed): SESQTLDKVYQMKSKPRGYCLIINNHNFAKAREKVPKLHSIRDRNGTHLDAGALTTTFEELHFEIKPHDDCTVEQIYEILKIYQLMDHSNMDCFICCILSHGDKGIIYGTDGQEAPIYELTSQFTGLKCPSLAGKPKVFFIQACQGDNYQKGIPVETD
# T5 sequence (Q14790 385-479 limits assumed): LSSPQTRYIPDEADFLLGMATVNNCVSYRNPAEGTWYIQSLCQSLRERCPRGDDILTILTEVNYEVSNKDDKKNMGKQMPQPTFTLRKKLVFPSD
# Text: as §2
# [13] = biological target: T3, caspase 9; settings: reported by Randle and coworkers (Wannamaker et al. 2007); read-out: Ki versus caspase 9; cited from earlier work
# [14] = biological target: T2, caspase 1; settings: reported by Randle and coworkers (Wannamaker et al. 2007); read-out: Ki versus caspase 1; cited from earlier work
# [15] = biological target: T6, caspase 4 (Homo sapiens, UniProt P49662); settings: reported by Randle and coworkers (Wannamaker et al. 2007); read-out: Ki versus caspase 4; cited from earlier work
# T6 construct: purchased Reaction Biology Corporation
# T6 sequence (P49662 81-270 limits assumed): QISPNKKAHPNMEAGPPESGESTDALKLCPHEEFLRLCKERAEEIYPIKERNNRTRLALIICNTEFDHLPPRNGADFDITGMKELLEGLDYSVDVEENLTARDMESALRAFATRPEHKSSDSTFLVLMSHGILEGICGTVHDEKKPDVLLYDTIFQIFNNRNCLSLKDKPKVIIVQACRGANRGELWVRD
# T6 sequence (P49662 290-377 limits assumed): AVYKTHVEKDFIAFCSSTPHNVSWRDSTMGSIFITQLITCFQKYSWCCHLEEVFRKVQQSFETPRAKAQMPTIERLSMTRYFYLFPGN
# [16] = biological target: T5, caspase 8; settings: reported by Randle and coworkers (Wannamaker et al. 2007); read-out: Ki versus caspase 8; cited from earlier work
# [17] = biological target: T7, caspase 6 (Homo sapiens, UniProt P55212); assay: commercial panel of caspases (Reaction Biology Corporation), caspase 6; type: biochemical; settings: read-out: IC50 versus caspase 6
# T7 sequence (P55212 24-179 limits assumed): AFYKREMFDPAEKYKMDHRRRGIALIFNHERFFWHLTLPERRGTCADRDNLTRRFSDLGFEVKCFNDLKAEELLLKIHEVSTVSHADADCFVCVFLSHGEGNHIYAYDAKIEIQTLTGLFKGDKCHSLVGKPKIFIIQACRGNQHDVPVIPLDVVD
# T7 sequence (P55212 194-293 limits assumed): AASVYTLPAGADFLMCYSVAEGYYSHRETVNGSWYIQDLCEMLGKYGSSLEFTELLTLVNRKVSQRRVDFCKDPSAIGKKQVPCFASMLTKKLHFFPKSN
# Text: as §2
# [18] = biological target: T6, caspase 4; assay: commercial panel of caspases (Reaction Biology Corporation), caspase 4; type: biochemical; settings: read-out: IC50 versus caspase 4
# Text: as §2
# [19] = biological target: T7, caspase 6; settings: reported by Randle and coworkers (Wannamaker et al. 2007); read-out: Ki versus caspase 6; cited from earlier work
Compound,free fraction in protein binding assay [1],clearance rates (Clint) ([2]; liver microsomes),t ½ ([2]; liver microsomes),free fraction in protein binding assay [3],aqueous stability in acidic conditions (pH 2) [4],"aqueous stability in neutral conditions (water, pH 7) [4]",aqueous stability in basic conditions (pH 8) [4],IC50 [6] [nM],IC50 [7] [nM],Caco-2 A to B permeability [9],Caco-2 B to A levels [9],Pgp efflux substrate [10],IC50 [5] [nM],IC50 [8] [nM],other results
CC(C)(C)C(NC(=O)c1ccc(N)c(Cl)c1)C(=O)N1CCCC1C(=O)NC(C#N)CC(=O)O (stereo not shown) [NCGC00183434 (4)],significantly higher,moderate,moderate,significantly higher,moderate to good,moderate to good,exceedingly stable,0.023,0.316,–,–,–,801,–,"degradation in acidic conditions ([4]; acidic (pH 2), after 72 hours): 50%; degradation in neutral conditions ([4]; neutral (pH 7), after 72 hours): 50%; persistence in aqueous conditions ([4]; suggested from the degradation data): > 24 h"
CC(C)(C)C(NC(=O)c1ccc(N)c(Cl)c1)C(=O)N1CCCC1C(=O)NC(C#N)Cc1nnn[nH]1 (stereo not shown) [NCGC00183681 (16)],significantly higher,moderate,moderate,significantly higher,resistant to degradation,resistant to degradation,resistant to degradation,2.58,20.4,–,–,–,–,91.5,–
"CC(C)(C)[C@H](NC(=O)c1ccc(N)c(Cl)c1)C(=O)N1CCC[C@H]1C(=O)N[C@H](C=O)CC(=O)O [VRT-043198 (2b), reference compound]",significantly higher,moderate,moderate,significantly higher,very stable,very stable,moderate,0.204,11.5,–,–,–,58.5,5.07,activity versus the remaining targets [11]: little activity; IC50 [12]: 3.3 nM; Ki [13]: 1030 nM; Ki [14]: < 1 nM; Ki [15]: < 1 nM; Ki [16]: 100 nM; IC50 [17]: > 10000 nM; IC50 [18]: 14.5 nM; Ki [19]: 560 nM

# Second part, led by results:
free fraction in protein binding assay [1],clearance rates (Clint) ([2]; liver microsomes),t ½ ([2]; liver microsomes),free fraction in protein binding assay [3],aqueous stability in acidic conditions (pH 2) [4],"aqueous stability in neutral conditions (water, pH 7) [4]",aqueous stability in basic conditions (pH 8) [4],IC50 [6] [nM],IC50 [7] [nM],Caco-2 A to B permeability [9],Caco-2 B to A levels [9],Pgp efflux substrate [10],Compound,IC50 [5] [nM],IC50 [8] [nM],other results
–,moderate,moderate,–,exceptionally stable,exceptionally stable,–,43.4,145,moderately better levels,high,substrates for Pgp efflux,CCOC(=O)CC(C#N)NC(=O)C1CCCN1C(=O)C(NC(=O)c1ccc(N)c(Cl)c1)C(C)(C)C (stereo not shown) [NCGC00185682 (3)],–,–,"degradation in liver microsomes without NADPH ([2]; without NADPH as a cofactor): slight degree of degradation; degradation in basic conditions ([4]; basic (pH 8), after 22 hours): fully degraded"
–,–,–,–,amplified,moderate degradation,amplified,–,–,moderately better levels,high,substrates for Pgp efflux,"CCO[C@@H]1OC(=O)C[C@@H]1NC(=O)[C@@H]1CCCN1C(=O)[C@@H](NC(=O)c1ccc(N)c(Cl)c1)C(C)(C)C [VX-765 (1), reference compound]",–,–,"metabolism by liver microsomes ([2]; liver microsomes): minimal ability to be metabolized; half-life ([2]; liver microsomes, read-out: t ½): > 157 h; degradation at pH 2 ([4]; pH 2, after 3.5 hours): 40%; compound decomposed in water ([4]; water (pH 7), after 48 hours): over 50%"
